Assay results published in patent US9326985B2, “Heteroaryl pyridone and aza-pyridone amide compounds” (Genentech, Inc., priority 2013, dated 2016).

Assays:
[1] = tested on: CD69 by B lymphocytes in human whole blood activated with goat F(ab')2 anti-human IgM; assay: CD69 Whole Blood Assay (CD69 Hu Blood FACS); format: cell-based; details: Lymphocyte, CD69 positive of CD20 positive cells
In short: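 Heparinized human whole blood from healthy drug-free non-smokers preincubated 30 min at 37 °C with ten-point 3-fold compound dilutions, then stimulated with goat F(ab′)2 anti-human IgM (50 μg/ml final) for 20 h. CD69 on B cells read by flow cytometry as mean fluorescence intensity.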

[2] = molecular target: T1, full length human wildtype Btk (Homo sapiens, UniProt Q06187); assay: Biochemical Btk Assay (BTK LC3K)
T1 construct: V5 (C); 6xHis (C); made in house; host or cells: Sf9 insect cells (baculovirus, pFastBac)
Procedure: A generalized procedure for a standard biochemical Btk, Kinase Assay that can be used to test Formula I compounds is as follows. A master mix minus Btk enzyme is prepared containing 1× Cell Signaling kinase buffer (25 mM Tris-HCl, pH 7.5, 5 mM beta-glycerophosphate, 2 mM dithiothreitol, 0.1 mM Na3VO4, 10 mM MgCl2), 0.5 μM Promega PTK Biotinylated peptide substrate 2, and 0.01% BSA. A master mix plus Btk enzyme is prepared containing 1× Cell Signaling kinase buffer, 0.5 μM (micromolar) PTK Biotinylated peptide substrate 2, 0.01% BSA, and 100 ng/well (0.06 mU/well) Btk enzyme. Btk enzyme is prepared as follows: full length human wildtype Btk (accession number NM-000061) with a C-terminal V5 and 6×His tag was subcloned into pFastBac® vector (Invitrogen/Life Technologies) for making baculovirus carrying this epitope-tagged Btk. […] Passage 3 virus is used to infect Sf9 cells to overexpress the recombinant Btk protein. The Btk protein is then purified to homogeneity using Ni-NTA column. […] A solution of 200 μM ATP is prepared in water and adjusted to pH 7.4 with 1N NaOH. A quantity of 1.25 μL (microliter) of compounds in 5% DMSO is transferred to a 96-well ½ area Costar polystyrene plate. Compounds are tested singly and with an 11-point dose-responsive curve (starting concentration is 10 μM; 1:2 dilution). A quantity of 18.75 μL of master mix minus enzyme (as a negative control) and master mix plus enzyme is transferred to appropriate wells in 96-well ½ area costar polystyrene plate. 5 μL of 200 μM ATP is added to that mixture in the 96-well ½ area Costar polystyrene plate for final ATP concentration of 40 μM. The reaction is allowed to incubate for 1 hour at room temperature. The reaction is stopped with Perkin Elmer 1× detection buffer containing 30 mM EDTA, 20 nM SA-APC, and 1 nM PT66 Ab. […] IC50 values are subsequently calculated. Alternatively, the Lanthascreen assay can be used to evaluate Btk activity through quantification of its phosphorylated peptide product. The FRET (Fluorescence Resonance Energy Transfer) that occurs between the fluorescein on the peptide product and the terbium on the detection antibody decreases with the addition of inhibitors of Btk that reduce the phosphorylation of the peptide. In a final reaction volume of 25 uL, Btk (h) (0.1 ng/25 ul reaction) is incubated with 50 mM Hepes pH 7.5, 10 mM MgCl2, 2 mM MnCl2, 2 mM DTT, 0.2 mM NaVO4, 0.01% BSA, and 0.4 uM fluorescein poly-GAT. […] After incubation for 60 minutes at room temperature, the reaction is stopped by the addition of a final concentration of 2 nM Tb-PY20 detection antibody in 60 mM EDTA for 30 minutes at room temperature.

T1 sequence (Q06187 whole entry): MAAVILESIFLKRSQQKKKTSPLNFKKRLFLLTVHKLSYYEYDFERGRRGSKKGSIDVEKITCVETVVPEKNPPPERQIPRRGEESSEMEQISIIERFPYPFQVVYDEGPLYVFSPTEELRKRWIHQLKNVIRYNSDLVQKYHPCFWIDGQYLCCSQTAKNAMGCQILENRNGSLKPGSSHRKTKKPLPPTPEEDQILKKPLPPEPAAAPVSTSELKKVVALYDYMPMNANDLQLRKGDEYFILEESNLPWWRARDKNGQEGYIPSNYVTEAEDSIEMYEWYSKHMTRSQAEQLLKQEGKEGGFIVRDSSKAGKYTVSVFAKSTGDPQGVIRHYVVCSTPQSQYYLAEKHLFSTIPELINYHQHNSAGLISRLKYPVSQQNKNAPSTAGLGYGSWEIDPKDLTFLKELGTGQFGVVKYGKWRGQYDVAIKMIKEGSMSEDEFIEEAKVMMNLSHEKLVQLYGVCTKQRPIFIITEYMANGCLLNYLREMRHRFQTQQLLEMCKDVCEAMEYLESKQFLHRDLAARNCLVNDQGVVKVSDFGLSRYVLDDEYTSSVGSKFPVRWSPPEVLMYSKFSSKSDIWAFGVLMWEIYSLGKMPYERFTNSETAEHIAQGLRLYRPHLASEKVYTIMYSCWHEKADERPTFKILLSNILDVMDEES

Structure (SMILES)	IC50 ([1]; Table 2, anti-IgM stimulation) [nM]	Ki ([2]; Table 2) [nM]	IC50 ([1]; Table 1, anti-IgM stimulation) [nM]	Ki ([2]; Table 1) [nM]
CN(C)C(=O)C1C[C@H]1C(=O)Nc1cc(-c2ccnc(-n3ncc4cc(C(C)(C)C)cc(F)c4c3=O)c2CO)cn(C)c1=O (single isomer, unassigned) [Compound 170, N2-[5-[2-(6-tert-butyl-8-fluoro-1-oxo-phthalazin-2-yl)-3-(hydroxymethyl)-4-pyridyl]-1-methyl-2-oxo-3-pyridyl]-N1,N1-dimethyl-cyclopropane-1,2-dicarboxamide]	> 4800	25	–	–
Cn1cc(-c2ccnc(N3CCc4c(cc5n4CC(C)(C)C5)C3=O)c2CO)cc(NC(=O)C2CC2)c1=O [Compound 137, N-[5-[2-(7,7-dimethyl-4-oxo-1,2,6,8-tetrahydropyrido[3,4-b]pyrrolizin-3-yl)-3-(hydroxymethyl)-4-pyridyl]-1-methyl-2-oxo-3-pyridyl]cyclopropanecarboxamide]	616	28.5	–	–
Cn1cc(-c2ccnc(N3CCn4c(cc5c4CC(C)(C)C5)C3=O)c2CO)cc(NC(=O)[C@@H]2CC23CC3)c1=O (single isomer, unassigned) [Compound 140]	1400	5.2	–	–
Cn1cc(-c2ccnc(N3CCc4cc(OC(F)F)cc(F)c4C3=O)c2CO)cc(NC(=O)C2CC2)c1=O [Compound 144, N-[5-[2-[6-(difluoromethoxy)-8-fluoro-1-oxo-3,4-dihydroisoquinolin-2-yl]-3-(hydroxymethyl)-4-pyridyl]-1-methyl-2-oxo-3-pyridyl]cyclopropanecarboxamide]	> 5400	234	–	–
CN1CC[C@@]2(C[C@@H]2C(=O)Nc2cc(-c3ccnc(-n4ncc5cc(C(C)(C)C)cc(F)c5c4=O)c3CO)cn(C)c2=O)C1 (single isomer, unassigned) [Compound 174]	1500	7.2	–	–
Cn1cc(-c2ccnc(N3CCn4c(cc5c4CC(C)(C)C5)C3=O)c2CO)cc(NC(=O)C2CC2(F)F)c1=O (centres unmarked) [Compound 116, N-[5-[2-(7,7-dimethyl-4-oxo-1,2,6,8-tetrahydrocyclopenta[3,4]pyrrolo[3,5-b]pyrazin-3-yl)-3-(hydroxymethyl)-4-pyridyl]-1-methyl-2-oxo-3-pyridyl]-2,2-difluoro-cyclopropanecarboxamide]	–	–	988	34.8
CN1CC[C@]2(C[C@H]2C(=O)Nc2cc(-c3ccnc(-n4ncc5cc(C(C)(C)C)cc(F)c5c4=O)c3CO)cn(C)c2=O)C1 (single isomer, unassigned) [Compound 169]	> 4800	38.4	–	–
CN(C)C(=O)C1C[C@@H]1C(=O)Nc1cc(-c2ccnc(-n3ncc4cc(C(C)(C)C)cc(F)c4c3=O)c2CO)cn(C)c1=O (single isomer, unassigned) [Compound 171, N2-[5-[2-(6-tert-butyl-8-fluoro-1-oxo-phthalazin-2-yl)-3-(hydroxymethyl)-4-pyridyl]-1-methyl-2-oxo-3-pyridyl]-N1,N1-dimethyl-cyclopropane-1,2-dicarboxamide]	> 4800	91.5	–	–
CN1CC[C@]2(C[C@@H]2C(=O)Nc2cc(-c3ccnc(-n4ncc5cc(C(C)(C)C)cc(F)c5c4=O)c3CO)cn(C)c2=O)C1 (single isomer, unassigned) [Compound 173]	> 4800	26	–	–
Cn1cc(-c2ccnc(N3CCc4cc(OC(F)F)cc(F)c4C3=O)c2CO)cc(NC(=O)[C@@H]2C[C@@H]2F)c1=O [Compound 151, (1S,2S)—N-[5-[2-[6-(difluoromethoxy)-8-fluoro-1-oxo-3,4-dihydroisoquinolin-2-yl]-3-(hydroxymethyl)-4-pyridyl]-1-methyl-2-oxo-3-pyridyl]-2-fluoro-cyclopropanecarboxamide]	> 5300	66	–	–
Cn1cc(-c2cc(F)cc(N3CCc4c(cc5n4CCCC5)C3=O)c2CO)cc(NC(=O)[C@@H]2C[C@@H]2F)c1=O [Compound 167, (1S,2S)-2-fluoro-N-[5-[5-fluoro-2-(hydroxymethyl)-3-(1-oxo-3,4,6,7,8,9-hexahydropyrido[3,4-b]indolizin-2-yl)phenyl]-1-methyl-2-oxo-3-pyridyl]cyclopropanecarboxamide]	245	2.4	–	–
Cn1cc(-c2ccnc(N3CCn4c(cc5c4CC(C)(C)C5)C3=O)c2CO)cc(NC(=O)[C@H]2CC23CCC3)c1=O (single isomer, unassigned) [Compound 147]	910	4.8	–	–
Cn1cc(-c2cc(F)cc(N3CCn4c(cc5c4CC(C)(C)C5)C3=O)c2CO)cc(NC(=O)[C@H]2C[C@H]2F)c1=O [Compound 176, (1R,2R)—N-[5-[3-(7,7-dimethyl-4-oxo-1,2,6,8-tetrahydrocyclopenta[3,4]pyrrole[3,5-b]pyrazin-3-yl)-5-fluoro-2-(hydroxymethyl)phenyl]-1-methyl-2-oxo-3-pyridyl]-2-fluoro-cyclopropanecarboxamide]	32.7	2.1	–	–
CCC(=O)Nc1cc(-c2ccnc(-n3ncc4cc(C(C)(C)C)cc(F)c4c3=O)c2CO)cn(C)c1=O [Compound 126, N-[5-[2-(6-tert-butyl-8-fluoro-1-oxo-phthalazin-2-yl)-3-(hydroxymethyl)-4-pyridyl]-1-methyl-2-oxo-3-pyridyl]propanamide]	–	–	527	7.01
CCOC1C[C@@H]1C(=O)Nc1cc(-c2ccnc(N3CCn4c(cc5c4CC(C)(C)C5)C3=O)c2CO)cn(C)c1=O (mixture of isomers) [Compound 145, (1S)—N-[5-[2-(7,7-dimethyl-4-oxo-1,2,6,8-tetrahydrocyclopenta[3,4]pyrrolo[3,5-b]pyrazin-3-yl)-3-(hydroxymethyl)-4-pyridyl]-1-methyl-2-oxo-3-pyridyl]-2-ethoxy-cyclopropanecarboxamide]	636	11	–	–
Cn1cc(C(=O)Nc2cc(-c3ccnc(N4CCn5c(cc6c5CC(C)(C)C6)C4=O)c3CO)cn(C)c2=O)cn1 [Compound 110, N-[5-[2-(7,7-dimethyl-4-oxo-1,2,6,8-tetrahydrocyclopenta[3,4]pyrrolo[3,5-b]pyrazin-3-yl)-3-(hydroxymethyl)-4-pyridyl]-1-methyl-2-oxo-3-pyridyl]-1-methyl-pyrazole-4-carboxamide]	–	–	> 2600	> 167
